Assay results as given in patent US10400008B2, “Modulators of the SRC-kinase activity for preventing or treating metastatic cancer” (Cancer Research Technology Limited, priority 2013, dated 2019).
One block for each molecule: values may come before it.

Legend:
HT1080 cell xenografts = test: HT1080 xenografts in nude male mice, tumor mass; type: in vivo; conditions: 200 μl of 1 μM Casodex i.p. at alternate days, 4 weeks, vs vehicle
Method: FIG. 1: Casodex reduces the growth of human fibrosarcoma HT1080 xenografts. HT1080 xenografts were established in nude male mice as described in Methods. Tumors were treated with vehicle alone (ethanol), or the pure androgen antagonist, Casodex (Cx; at 1 μM; Sigma-Aldrich). Tumor mass was measured at the indicated times. Mean and SEM are shown. n represents the number of experiments.
(§1) HT1080 cells in 50% (v/v) Matrigel solution in phosphate-buffered saline (PBS; pH 7.4) were subcutaneously injected in the dorsal posterior region at 2.5×10^6 cells/male athymic mice (CD mice, Charles-River Italia) without hormone priming. Animals were randomly selected for the treatment with Casodex dissolved in 0.1% ethanol or vehicle alone for additional 4 weeks. Tumour volumes of HT1080 cell xeno-grafts were measured by a calliper and expressed as tumour mass (mm^3). For the treatment of each animal, 200 μl of 1 μM Casodex in 0.1% ethanol or the same amount of vehicle alone were intra-peritoneally administered at alternate days to the mice. No difference in body weight was detected between control mice or Casodex-treated mice.

[1] = Body weight of HT1080 xenograft mice; type: in vivo; conditions: Casodex-treated vs control mice
Method: as §1

Src = target: T1, Src (Homo sapiens, UniProt P12931); test: Src kinase assay in immune-complexes with enolase as substrate, EGF-stimulated HT1080 cells; type: cell-based; conditions: EGF 100 ng/ml, 10 μM Casodex, compared with 1 nM S1 peptide
T1 construct: lysates were immune-precipitated with the anti-Src MAb and Src activity in immune-complexes was assayed using enolase as a substrate; endogenous in cells; host or cells: HT1080 human fibrosarcoma cells
Method: FIG. 3: Inhibition by S1 peptide of AR/Src complex, Src activation and DNA synthesis triggered by EGF in HT1080 cells. Quiescent HT1080 cells were used. The cells were left un-stimulated or stimulated for 10 min with EGF (at 100 ng/ml; Roche) in the absence or presence of S1 or Ss peptide (both at 1 nM). Casodex (at 10 μM) was used for comparison with the S1 peptide. The same concentrations of peptides and Casodex were used throughout the experiments. Upper section in A, the Western blot of HT1080 cell lysates with anti-EGFR antibody is shown. […] Lower section in A, lysates were immune-precipitated with anti EGFR Ab and proteins in immune-complexes were detected using antibodies against the indicated proteins. In B, lysates were immune-precipitated with the anti-Src MAb and Src activity in immune-complexes was assayed using enolase as a substrate. In C, cells on coverslips were left untreated or treated for 18 h with the indicated compounds. After in vivo pulse with BrdU (100 μM; Sigma), BrdU incorporation was analyzed by IF and expressed as % of total nuclei. Mean and SEM are shown. n represents the number of experiments.
Src tyrosine kinase was immune-precipitated, detected and assayed using enolase as a substrate (15). Src, EGF-R and tubulin were detected from cell lysates using appropriate antibodies (7). AR was immune-precipitated and detected as reported (3). […]

HT1080 cells [2] = test: BrdU incorporation (DNA synthesis) in HT1080 cells; type: cell-based, human; conditions: EGF, Casodex 10 μM
Method: Androgen challenging of these cells neither induces AR nuclear translocation, nor enhances DNA synthesis while robustly increases cell motility. In A, quiescent HT1080 cells were transfected with 3416 or 3424 ARE-luc constructs with or without hAR expressing plasmid. Details of these procedures have been described in Methods. Cells were left un-stimulated or stimulated for 18 h with 10 nM R1881. The luciferase activity was assayed, normalized using beta-gal as an internal control, and expressed as fold induction. Means and SEM are shown; n represents the number of experiments. […] In B, quiescent HT1080 cells on coverslips were left untreated or treated for 60 min with 10 nM R1881. Cells were analysed by IF for AR (left images) or Hoechst (right images). Images are representative of three independent experiments. […] In C, BrdU incorporation in cells on coverslips was analysed and expressed as in FIG. 2. In D, the number of migrated cells was evaluated and expressed as relative increase. […]
FIG. 3: Inhibition by S1 peptide of AR/Src complex, Src activation and DNA synthesis triggered by EGF in HT1080 cells. […] Lower section in A, lysates were immune-precipitated with anti EGFR Ab and proteins in immune-complexes were detected using antibodies against the indicated proteins. […] After in vivo pulse with BrdU (100 μM; Sigma), BrdU incorporation was analyzed by IF and expressed as % of total nuclei. […]

MMP-9 = MMP-9 release from HT1080 cells (fluorescent AK411 kit); type: cell-based, human; conditions: 6 h, Casodex 10 μM
Method: (§2) FIG. 4: The S1 peptide inhibits EGF-stimulated migration and MMP-9 secretion in HT1080 cells. Quiescent HT1080 cells were used. In A, cells were left untreated or treated for 6 h with the indicated compounds. MMP-9 release was assayed as described in Methods. In B, cells were allowed to migrate for 6 h in Trans-well filters in the absence or presence of the indicated compounds. Migrated cells were stained and counted as reported in Methods. In A and B, data were expressed as relative increase. Mean and SEM is shown. n represents the number of experiments. In C, cells were wounded and then left unstimulated or stimulated for 6 h with the indicated compounds. Contrast-phase images are representative of 3 different experiments, each performed in duplicate.
(§3) BrdU incorporation, migration and wound healing analysis were done as described (3, 11). MMP-9 activity was assayed (12, 13), using the fluorescent AK411 kit (BIOMOL Res. Lab.).

HT1080 cells [3] = test: Migration in Trans-well filters and wound healing of HT1080 cells; type: cell-based, human; conditions: 6 h, Casodex 10 μM
Method: as §2, §3

[4] = tested on: non-small cell lung tumor line xenografts; conditions: mice, reference 20; cited from earlier work
EGF receptor (EGFR) = target: T2, EGF receptor (EGFR) (human, UniProt P00533 25-1210); test: immune-precipitation with anti-EGFR antibody from EGF-stimulated HT1080 lysates, immunoblot
T2 construct: Endogenous protein of HT1080 cells
Method: Quiescent HT1080 cells were used. […] The same concentrations of peptides and Casodex were used throughout the experiments. […] In C, cells on coverslips were left untreated or treated for 18 h with the indicated compounds. After in vivo pulse with BrdU (100 μM; Sigma), BrdU incorporation was analyzed by IF and expressed as % of total nuclei. Mean and SEM are shown. n represents the number of experiments.
The ECL system (GE Healthcare) was used to reveal immune-reactive proteins.

T1 sequence (P12931 whole entry): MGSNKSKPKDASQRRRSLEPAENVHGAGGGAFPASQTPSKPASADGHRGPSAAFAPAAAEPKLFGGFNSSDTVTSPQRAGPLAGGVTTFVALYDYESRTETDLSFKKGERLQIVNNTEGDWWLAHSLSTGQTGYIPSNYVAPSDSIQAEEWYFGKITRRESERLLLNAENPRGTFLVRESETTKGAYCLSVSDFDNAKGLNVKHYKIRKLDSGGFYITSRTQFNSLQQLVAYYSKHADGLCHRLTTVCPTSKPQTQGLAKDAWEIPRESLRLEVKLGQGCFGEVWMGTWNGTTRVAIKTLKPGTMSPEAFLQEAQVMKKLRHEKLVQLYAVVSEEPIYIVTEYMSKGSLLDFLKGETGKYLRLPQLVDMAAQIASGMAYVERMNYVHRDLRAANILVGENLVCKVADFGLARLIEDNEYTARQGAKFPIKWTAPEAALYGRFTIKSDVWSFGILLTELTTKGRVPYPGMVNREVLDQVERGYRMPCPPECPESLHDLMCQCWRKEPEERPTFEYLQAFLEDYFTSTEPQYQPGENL

EGF stimulation of Src activity (Src): comparable
Molecule: CC(O)(CS(=O)(=O)c1ccc(F)cc1)C(=O)Nc1ccc(C#N)c(C(F)(F)F)c1 (centres unmarked) [Casodex, reference compound]
growth (tumor mass) of HT1080 xenografts (HT1080 cell xenografts): reduced | body weight [1]: No difference | EGF mitogenic effect (DNA synthesis) (HT1080 cells [2]): abolishes | EGF-stimulated MMP-9 secretion (MMP-9): inhibits | EGF-increased motility (HT1080 cells [3]): inhibited at a similar extent

Molecule: C[C@]12CC[C@@H]3c4ccc(O)cc4C[C@@H](CCCCCCCCC[S+]([O-])CCCC(F)(F)C(F)(F)F)[C@H]3[C@@H]1CC[C@@H]2O (some centres unmarked) [ICI 182,780]
estrogen-stimulated growth of non-small cell lung tumor line xenografts [4]: blocks

binding result (EGF receptor (EGFR)): binds
B1: androgen receptor (AR) (receptor, human, UniProt P10275 1-920, looked up)
chain: MEVQLGLGRVYPRPPSKTYRGAFQNLFQSVREVIQNPGPRHPEAASAAPPGASLLLLQQQQQQQQQQQQQQQQQQQQQQQETSPRQQQQQQGEDGSPQAHRRGPTGYLVLDEEQQPSQPQSALECHPERGCVPEPGAAVAASKGLPQQLPAPPDEDDSAAPSTLSLLGPTFPGLSSCSADLKDILSEASTMQLLQQQQQEAVSEGSSSGRAREASGAPTSSKDNYLGGTSTISDNAKELCKAVSVSMGLGVEALEHLSPGEQLRGDCMYAPLLGVPPAVRPTPCAPLAECKGSLLDDSAGKSTEDTAEYSPFKGGYTKGLEGESLGCSGSAAAGSSGTLELPSTLSLYKSGALDEAAAYQSRDYYNFPLALAGPPPPPPPPHPHARIKLENPLDYGSAWAAAAAQCRYGDLASLHGAGAAGPGSGSPSAAASSSWHTLFTAEEGQLYGPCGGGGGGGGGGGGGGGGGGGGGGGEAGAVAPYGYTRPPQGLAGQESDFTAPDVWYPGGMVSRVPYPSPTCVKSEMGPWMDSYSGPYGDMRLETARDHVLPIDYYFPPQKTCLICGDEASGCHYGALTCGSCKVFFKRAAEGKQKYLCASRNDCTIDKFRRKNCPSCRLRKCYEAGMTLGARKLKKLGNLKLQEEGEASSTTSPTEETTQKLTVSHIEGYECQPIFLNVLEAIEPGVVCAGHDNNQPDSFAALLSSLNELGERQLVHVVKWAKALPGFRNLHVDDQMAVIQYSWMGLMVFAMGWRSFTNVNSRMLYFAPDLVFNEYRMHKSRMYSQCVRMRHLSQEFGWLQITPQEFLCMKALLLFSIIPVDGLKNQKFFDELRMNYIKELDRIIACKRKNPTSCSRRFYQLTKLLDSVQPIARELHQFTFDLLIKSHMVSVDFPEMMAEIISVQVPKILSGKVKPIYFHTQ
notes: Endogenous protein of HT1080 cells (co-immunoprecipitation from lysates)
